The MIC90 is the lowest concentration that inhibits either 90% of growth or 90% of the strains tested, depending on the study. As a reminder, the MIC is the least concentration at which growth counts as inhibited. By EC90 is commonly meant the concentration needed for an effect of 90%.

The values that follow come from ChEMBL document CHEMBL6182867, “Discovery of ultra short β-peptoids with selective activity against drug-resistant Mycobacterium tuberculosis” (Eur J Med Chem, 2025).

Where only a bound is given, the exact number is not on record here.

Common to all, as to assay type: functional
Test [1] relates to Mycobacterium tuberculosis. Kind of test: Antitubercular activity against isoniazid-resistant Mycobacterium tuberculosis H37Rv by microplate alamar blue assay. For orientation: The colour change of resazurin is a common sign of viable cells or microbes.
For test [2], the system named is Mycobacterium tuberculosis. Kind of test: Antitubercular activity against rifampin-resistant Mycobacterium tuberculosis H37Rv by microplate alamar blue assay.
Test [3] concerns Mycobacterium tuberculosis. Kind of test: Synergistic antitubercular activity against Mycobacterium tuberculosis bedaquiline-resistant mutant H15 assessed as bedaquiline MIC=>90 at 0.8 ug/ml by microplate alamar blue assay (Rvb >2 uM). The conditions noted are these: dose 0.8 µg/ml.
For test [4], the system named is Mycobacterium tuberculosis. Put plainly: Synergistic antitubercular activity against Mycobacterium tuberculosis bedaquiline-resistant mutant H15 assessed as bedaquiline growth inhibition at 0.8 ug/ml by microplate alamar blue assay (reference value: 75%). The conditions noted are these: dose 0.8 µg/ml.
Test [5] relates to Mycobacterium tuberculosis. Kind of test: Synergistic antitubercular activity against Mycobacterium tuberculosis isoniazid-resistant mutant assessed as isoniazid growth inhibition at 0.8 ug/ml by microplate alamar blue assay (reference value: 0%). The conditions noted are these: dose 0.8 µg/ml.
Test [6] has as its system Mycobacterium tuberculosis. Put plainly: Synergistic antitubercular activity against Mycobacterium tuberculosis bedaquiline-resistant mutant 7 assessed as bedaquiline MIC=>90 at 0.8 ug/ml by microplate alamar blue assay (Rvb >2 uM). The note with it: dose 0.8 µg/ml.
The test system of test [7] is Mycobacterium tuberculosis. Put plainly: Antitubercular activity against Mycobacterium tuberculosis H37Rv harboring LuxABCDE assessed as reduction in luminescence supplemented with fresh medium containing compound on day 2 and 5 by luminescence assay. The note with it: 120 h, time 5 day.
Test [8] has as its system Mycobacterium tuberculosis. Kind of test: Synergistic antitubercular activity against Mycobacterium tuberculosis rifampin-resistant mutant assessed as rifampin growth inhibition at 0.8 ug/ml by microplate alamar blue assay (reference value: 46%). The note with it: dose 0.8 µg/ml.
Test [9] concerns Mycobacterium tuberculosis. Kind of test: Synergistic antitubercular activity against Mycobacterium tuberculosis rifampin-resistant mutant assessed as rifampin MIC=>90 at 0.8 ug/ml by microplate alamar blue assay (Rvb >1 uM). The note with it: dose 0.8 µg/ml.
Test [10] deals with Mycobacterium tuberculosis. Put plainly: Synergistic antitubercular activity against Mycobacterium tuberculosis isoniazid-resistant mutant assessed as isoniazid MIC=>90 at 0.8 ug/ml by microplate alamar blue assay (Rvb >8 uM). The conditions noted are these: dose 0.8 µg/ml.
The test system of test [11] is Mycobacterium tuberculosis. Kind of test: Synergistic antitubercular activity against Mycobacterium tuberculosis isoniazid-resistant mutant assessed as isoniazid growth inhibition at 0.4 ug/ml by microplate alamar blue assay (reference value: 0%). The conditions noted are these: dose 0.4 µg/ml.
For test [12], the system named is Mycobacterium tuberculosis. Kind of test: Synergistic antitubercular activity against Mycobacterium tuberculosis rifampin-resistant mutant assessed as rifampin growth inhibition at 0.4 ug/ml by microplate alamar blue assay (reference value: 46%). The note with it: dose 0.4 µg/ml.
The test system of test [13] is Mycobacterium tuberculosis. Kind of test: Synergistic antitubercular activity against Mycobacterium tuberculosis isoniazid-resistant mutant assessed as isoniazid MIC=>90 at 0.4 ug/ml by microplate alamar blue assay (Rvb >8 uM). The conditions noted are these: dose 0.4 µg/ml.
Test [14] has as its system Mycobacterium tuberculosis. Kind of test: Synergistic antitubercular activity against Mycobacterium tuberculosis rifampin-resistant mutant assessed as rifampin MIC=>90 at 0.4 ug/ml by microplate alamar blue assay (Rvb >1 uM). The conditions noted are these: dose 0.4 µg/ml.
Test [15] has as its system Mycobacterium tuberculosis. Put plainly: Synergistic antitubercular activity against Mycobacterium tuberculosis bedaquiline-resistant mutant H15 assessed as bedaquiline growth inhibition at 0.4 ug/ml by microplate alamar blue assay (reference value: 75%). The conditions noted are these: dose 0.4 µg/ml.
Test [16] has as its system Mycobacterium tuberculosis. Kind of test: Synergistic antitubercular activity against Mycobacterium tuberculosis bedaquiline-resistant mutant H15 assessed as bedaquiline MIC=>90 at 0.4 ug/ml by microplate alamar blue assay (Rvb >2 uM). The conditions noted are these: dose 0.4 µg/ml.
Test [17] relates to Mycobacterium tuberculosis. Put plainly: Synergistic antitubercular activity against Mycobacterium tuberculosis bedaquiline-resistant mutant 7 assessed as bedaquiline MIC=>90 at 0.4 ug/ml by microplate alamar blue assay (reference value: 0.9 uM). The note with it: dose 0.4 µg/ml.

For the compound `CC(C)N(C(=O)CCNCCC(c1ccccc1)c1ccccc1)C(C)C`, the MIC90 was 3.01 µg/mL in test [1] and 3.32 µg/mL in test [2]. The MIC in [3] was over 2 µM; in test [6], 0.53 µM; in test [9], over 1 µM; in test [10], over 8 µM. Besides, the “growth inhibition (GI)” value in test [4] turned out to be 76%; in [5] it was 17%; in [8] it was 60%. In addition, in test [7], the EC90 was 9.93 µg/mL.

As for `CO[C@H]1/C=C/O[C@@]2(C)Oc3c(C)c(O)c4c(O)c(c(/C=N/N5CCN(C)CC5)c(O)c4c3C2=O)NC(=O)/C(C)=C\C=C\[C@H](C)[C@H](O)[C@@H](C)[C@@H](O)[C@@H](C)[C@H](OC(C)=O)[C@@H]1C` [RIFAMPIN], the MIC90 in test [1] was 0.03 µM; in test [2] it was over 1 µM.

For `COc1nc2ccc(Br)cc2cc1[C@@H](c1ccccc1)[C@@](O)(CCN(C)C)c1cccc2ccccc12` [BEDAQUILINE], the concentration for an effect of 90% (EC90) in test [7] came to 360 nM.

Turning to `CC(=O)NC[C@H]1CN(c2ccc(N3CCOCC3)c(F)c2)C(=O)O1` [LINEZOLID], the MIC90 worked out at 0.94 µM in test [1] and 1.14 µM in test [2].

With `NNC(=O)c1ccncc1` [ISONIAZID], the MIC90 in [1] was over 8 µM; in test [2], 0.32 µM.

As to `CC(C)N(C(=O)CCNCCCC1CCCC1)C(C)C`, the “growth inhibition (GI)” value in test [11] is reported as 0%; in test [12] it was 47%; in test [15] it was 72%. The MIC90 in test [1] came to 1.87 µg/mL; in [2], 1.78 µg/mL. Further, the minimum inhibitory concentration (MIC) is over 8 µM in [13], over 1 µM in [14], over 2 µM in test [16] and 0.91 µM in test [17]. In addition, the EC90 in test [7] came out at 9.67 µg/mL.
